Where two headings read alike, the source gives them in different places.
How the values were obtained:
Assay in all cases: KiNativ assay
Format in all cases: binding
Details in all cases: H929 live cell
[1] = tested on: ZC1/HGK, ZC2/TNIK, ZC3/MINK
Experimental: (§1) Biochemical IC50s of the compounds of the present disclosure against various kinases were measured in a KiNativ assay. Compounds were screened in duplicate at 10 μM in H929 live cell. IC50 was measured via Mass spectroscopy (MS).

MPSK1 = MPSK1 (Homo sapiens (Human), UniProt O75716)
Experimental: as §1

MAPKAPK2, MAPKAPK3 = tested on: MAPKAPK2, MAPKAPK3
Experimental: as §1

PHKg2 = PHKg2 (Homo sapiens (Human), UniProt P15735)
Experimental: as §1

RSK1 domain2 = RSK1 domain2 (Homo sapiens (Human), UniProt Q15418)
Experimental: as §1

GCN2 domain2 = GCN2 domain2 (Homo sapiens (Human), UniProt Q9P2K8)
Experimental: as §1

EphB2 = EphB2 (Homo sapiens (Human), UniProt P29323)
Experimental: as §1

PIP4K2A = PIP4K2A (Homo sapiens (Human), UniProt P48426)
Experimental: as §1

CHK1 = CHK1 (Homo sapiens (Human), UniProt O14757)
Experimental: as §1

PKCz = PKCz (Homo sapiens (Human), UniProt Q05513)
Experimental: as §1

CK1g3 = CK1g3 (Homo sapiens (Human), UniProt Q9Y6M4)
Experimental: as §1

SGK3 = SGK3 (Homo sapiens (Human), UniProt Q96BR1)
Experimental: as §1

eEF2K = eEF2K (Homo sapiens (Human), UniProt O00418)
Experimental: as §1

RSKL1 = RSKL1 (Homo sapiens (Human), UniProt Q96S38)
Experimental: as §1

MARK2, MARK3 = tested on: MARK2, MARK3
Experimental: as §1

MASTL = MASTL (Homo sapiens (Human), UniProt Q96GX5)
Experimental: as §1

BRAF = BRAF (Homo sapiens (Human), UniProt P15056)
Experimental: as §1

TBK1 = TBK1 (Homo sapiens (Human), UniProt Q9UHD2)
Experimental: as §1

CDC2 = CDC2 (Homo sapiens (Human), UniProt P06493)
Experimental: as §1

PKR = PKR (Homo sapiens (Human), UniProt P19525)
Experimental: as §1

FRAP = FRAP (Homo sapiens (Human), UniProt P42345)
Experimental: as §1

LATS1 = LATS1 (Homo sapiens (Human), UniProt O95835)
Experimental: as §1

MAP2K1 = MAP2K1 (Homo sapiens (Human), UniProt Q02750)
Experimental: as §1

PKD3 = PKD3 (Homo sapiens (Human), UniProt O94806)
Experimental: as §1

AurA, AurB, AurC = tested on: AurA, AurB, AurC
Experimental: as §1

LOK = LOK (Homo sapiens (Human), UniProt O94804)
Experimental: as §1

SNRK = SNRK (Homo sapiens (Human), UniProt Q9NRH2)
Experimental: as §1

FER = FER (Homo sapiens (Human), UniProt P16591)
Experimental: as §1

BARK1 = BARK1 (Homo sapiens (Human), UniProt P25098)
Experimental: as §1

IKKa = IKKa (Homo sapiens (Human), UniProt O15111)
Experimental: as §1

LYN = LYN (Homo sapiens (Human), UniProt P07948)
Experimental: as §1

MAP3K2, MAP3K3 = tested on: MAP3K2, MAP3K3
Experimental: as §1

NEK3 = NEK3 (Homo sapiens (Human), UniProt P51956)
Experimental: as §1

Sequence of SNRK (Q9NRH2 whole entry): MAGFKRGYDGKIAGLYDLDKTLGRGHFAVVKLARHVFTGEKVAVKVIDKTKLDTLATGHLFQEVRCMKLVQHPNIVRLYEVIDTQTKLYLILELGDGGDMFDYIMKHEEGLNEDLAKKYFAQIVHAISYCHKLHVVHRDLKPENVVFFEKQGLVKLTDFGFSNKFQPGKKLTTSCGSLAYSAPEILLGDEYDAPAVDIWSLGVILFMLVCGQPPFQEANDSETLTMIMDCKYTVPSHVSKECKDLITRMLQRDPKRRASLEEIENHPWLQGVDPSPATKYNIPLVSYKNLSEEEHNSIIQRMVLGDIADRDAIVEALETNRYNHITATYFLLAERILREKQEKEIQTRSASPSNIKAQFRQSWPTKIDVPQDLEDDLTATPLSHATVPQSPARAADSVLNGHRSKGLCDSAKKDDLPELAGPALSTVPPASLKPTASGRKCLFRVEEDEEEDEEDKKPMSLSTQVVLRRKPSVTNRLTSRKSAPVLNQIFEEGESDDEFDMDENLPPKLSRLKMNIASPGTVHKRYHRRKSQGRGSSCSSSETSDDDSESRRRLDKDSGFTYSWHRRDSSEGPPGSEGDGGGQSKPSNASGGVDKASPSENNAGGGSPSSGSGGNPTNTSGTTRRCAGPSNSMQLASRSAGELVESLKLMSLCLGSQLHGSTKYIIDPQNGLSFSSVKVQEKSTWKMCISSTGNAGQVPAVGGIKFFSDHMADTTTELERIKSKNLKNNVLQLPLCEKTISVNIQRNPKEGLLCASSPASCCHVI
Sequence of CDC2 (P06493 whole entry): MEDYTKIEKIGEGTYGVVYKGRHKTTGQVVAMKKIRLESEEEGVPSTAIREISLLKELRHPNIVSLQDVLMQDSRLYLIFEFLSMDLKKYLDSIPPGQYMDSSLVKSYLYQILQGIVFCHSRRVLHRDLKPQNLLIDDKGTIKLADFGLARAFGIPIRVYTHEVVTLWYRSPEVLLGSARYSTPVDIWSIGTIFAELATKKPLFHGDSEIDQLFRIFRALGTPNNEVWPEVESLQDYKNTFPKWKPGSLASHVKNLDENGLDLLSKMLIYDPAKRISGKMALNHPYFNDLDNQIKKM
Sequence of BARK1 (P25098 whole entry): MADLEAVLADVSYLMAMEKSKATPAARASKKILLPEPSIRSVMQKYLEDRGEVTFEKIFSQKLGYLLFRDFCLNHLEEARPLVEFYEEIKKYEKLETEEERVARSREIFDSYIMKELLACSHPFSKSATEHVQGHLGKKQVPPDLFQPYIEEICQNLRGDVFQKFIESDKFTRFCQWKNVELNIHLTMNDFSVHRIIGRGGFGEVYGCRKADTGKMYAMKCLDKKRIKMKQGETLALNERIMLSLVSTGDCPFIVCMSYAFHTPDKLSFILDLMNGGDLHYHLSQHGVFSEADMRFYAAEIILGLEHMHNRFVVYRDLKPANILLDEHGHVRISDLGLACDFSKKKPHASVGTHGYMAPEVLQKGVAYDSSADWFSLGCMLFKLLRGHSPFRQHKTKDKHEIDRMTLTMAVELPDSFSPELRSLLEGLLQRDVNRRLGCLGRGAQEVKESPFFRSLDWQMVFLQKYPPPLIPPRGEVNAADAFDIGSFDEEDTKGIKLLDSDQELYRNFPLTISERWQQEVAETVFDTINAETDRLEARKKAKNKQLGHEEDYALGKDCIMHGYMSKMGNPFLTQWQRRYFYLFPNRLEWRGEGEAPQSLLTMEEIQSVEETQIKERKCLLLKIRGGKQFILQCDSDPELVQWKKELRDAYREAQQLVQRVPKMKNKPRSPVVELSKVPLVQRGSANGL
Sequence of PHKg2 (P15735 whole entry): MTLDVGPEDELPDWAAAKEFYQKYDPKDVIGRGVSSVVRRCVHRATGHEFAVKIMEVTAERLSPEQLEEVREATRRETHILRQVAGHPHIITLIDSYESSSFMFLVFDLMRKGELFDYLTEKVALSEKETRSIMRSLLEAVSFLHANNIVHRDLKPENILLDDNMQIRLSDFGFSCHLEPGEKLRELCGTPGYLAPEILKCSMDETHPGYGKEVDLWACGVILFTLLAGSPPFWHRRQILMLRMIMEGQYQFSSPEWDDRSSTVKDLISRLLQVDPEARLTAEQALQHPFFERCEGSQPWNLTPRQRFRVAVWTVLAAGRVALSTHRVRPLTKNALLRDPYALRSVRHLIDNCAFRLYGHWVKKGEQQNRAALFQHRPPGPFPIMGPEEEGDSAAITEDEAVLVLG
Sequence of MAP2K1 (Q02750 whole entry): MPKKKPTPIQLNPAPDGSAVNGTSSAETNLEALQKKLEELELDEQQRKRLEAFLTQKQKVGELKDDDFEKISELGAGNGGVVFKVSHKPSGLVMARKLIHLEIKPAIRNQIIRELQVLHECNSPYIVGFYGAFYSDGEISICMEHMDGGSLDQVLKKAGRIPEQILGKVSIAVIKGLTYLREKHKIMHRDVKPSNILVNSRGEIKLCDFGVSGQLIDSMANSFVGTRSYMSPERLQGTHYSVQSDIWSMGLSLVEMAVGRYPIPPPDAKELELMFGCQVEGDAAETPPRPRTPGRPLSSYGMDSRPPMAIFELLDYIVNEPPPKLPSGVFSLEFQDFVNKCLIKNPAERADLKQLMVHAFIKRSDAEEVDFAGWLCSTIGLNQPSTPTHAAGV
Sequence of PKCz (Q05513 whole entry): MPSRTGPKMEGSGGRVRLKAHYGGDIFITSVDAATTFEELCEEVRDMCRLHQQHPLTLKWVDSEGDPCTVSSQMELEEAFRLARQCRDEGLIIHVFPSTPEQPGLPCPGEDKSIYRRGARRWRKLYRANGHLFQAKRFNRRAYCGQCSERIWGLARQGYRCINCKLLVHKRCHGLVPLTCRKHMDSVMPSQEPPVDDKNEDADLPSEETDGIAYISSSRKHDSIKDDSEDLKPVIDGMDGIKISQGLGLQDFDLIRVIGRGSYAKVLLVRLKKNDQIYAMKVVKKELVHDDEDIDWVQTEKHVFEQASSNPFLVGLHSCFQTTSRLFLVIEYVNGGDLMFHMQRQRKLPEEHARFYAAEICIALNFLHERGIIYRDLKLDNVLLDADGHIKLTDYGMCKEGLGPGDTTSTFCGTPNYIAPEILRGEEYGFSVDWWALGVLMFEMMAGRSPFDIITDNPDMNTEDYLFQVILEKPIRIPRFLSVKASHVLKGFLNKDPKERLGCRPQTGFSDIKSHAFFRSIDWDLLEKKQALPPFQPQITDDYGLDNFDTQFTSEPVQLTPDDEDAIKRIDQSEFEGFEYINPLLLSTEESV
Sequence of PIP4K2A (P48426 whole entry): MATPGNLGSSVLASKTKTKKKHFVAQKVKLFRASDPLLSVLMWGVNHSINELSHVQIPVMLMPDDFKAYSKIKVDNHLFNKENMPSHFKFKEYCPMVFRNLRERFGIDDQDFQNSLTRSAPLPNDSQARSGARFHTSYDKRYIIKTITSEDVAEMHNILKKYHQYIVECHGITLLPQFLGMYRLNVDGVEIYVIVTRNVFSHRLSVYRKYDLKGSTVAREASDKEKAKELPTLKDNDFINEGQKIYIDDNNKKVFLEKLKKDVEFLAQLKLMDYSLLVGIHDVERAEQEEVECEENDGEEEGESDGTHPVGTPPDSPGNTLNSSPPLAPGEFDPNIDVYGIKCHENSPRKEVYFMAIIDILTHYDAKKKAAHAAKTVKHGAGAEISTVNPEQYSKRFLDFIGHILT
Sequence of RSKL1 (Q96S38 whole entry): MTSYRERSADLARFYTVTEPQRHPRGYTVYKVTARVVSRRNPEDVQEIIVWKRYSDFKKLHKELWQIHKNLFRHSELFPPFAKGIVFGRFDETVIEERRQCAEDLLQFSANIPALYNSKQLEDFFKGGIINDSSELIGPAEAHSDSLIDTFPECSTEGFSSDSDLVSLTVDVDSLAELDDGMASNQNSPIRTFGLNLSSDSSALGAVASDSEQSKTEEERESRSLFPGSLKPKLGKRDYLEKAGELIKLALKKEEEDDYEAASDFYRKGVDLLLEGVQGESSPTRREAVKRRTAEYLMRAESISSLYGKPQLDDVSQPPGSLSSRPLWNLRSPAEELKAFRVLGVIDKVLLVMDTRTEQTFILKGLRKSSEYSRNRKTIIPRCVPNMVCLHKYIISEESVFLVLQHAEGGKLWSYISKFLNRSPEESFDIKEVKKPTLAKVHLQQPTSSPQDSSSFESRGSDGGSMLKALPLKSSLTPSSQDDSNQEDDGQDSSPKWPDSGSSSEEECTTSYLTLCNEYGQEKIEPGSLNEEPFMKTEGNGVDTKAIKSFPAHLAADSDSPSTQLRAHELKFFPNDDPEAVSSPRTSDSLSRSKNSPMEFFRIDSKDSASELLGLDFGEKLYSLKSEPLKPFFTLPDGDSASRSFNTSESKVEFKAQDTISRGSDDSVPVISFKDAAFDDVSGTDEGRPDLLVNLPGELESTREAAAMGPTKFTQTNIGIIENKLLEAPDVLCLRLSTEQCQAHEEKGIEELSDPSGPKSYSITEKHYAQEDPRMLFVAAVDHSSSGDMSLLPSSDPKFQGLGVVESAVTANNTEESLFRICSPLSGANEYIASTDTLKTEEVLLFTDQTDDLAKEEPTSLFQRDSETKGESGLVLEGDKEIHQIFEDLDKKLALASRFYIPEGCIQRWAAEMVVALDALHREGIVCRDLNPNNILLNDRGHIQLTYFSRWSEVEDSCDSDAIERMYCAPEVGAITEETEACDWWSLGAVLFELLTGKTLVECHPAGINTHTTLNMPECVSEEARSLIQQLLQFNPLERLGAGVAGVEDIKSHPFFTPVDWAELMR
Sequence of MPSK1 (O75716 whole entry): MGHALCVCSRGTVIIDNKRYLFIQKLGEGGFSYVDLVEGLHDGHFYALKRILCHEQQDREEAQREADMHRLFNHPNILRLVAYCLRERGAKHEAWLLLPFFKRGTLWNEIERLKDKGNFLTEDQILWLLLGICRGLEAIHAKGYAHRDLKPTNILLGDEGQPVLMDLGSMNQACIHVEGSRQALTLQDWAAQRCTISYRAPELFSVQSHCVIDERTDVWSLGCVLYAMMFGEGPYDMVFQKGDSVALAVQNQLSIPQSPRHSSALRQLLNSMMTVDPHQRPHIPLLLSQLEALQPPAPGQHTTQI

Compound: CN(C1CC1)S(=O)(=O)c1ccc(-c2cnc(N)c(-c3ccc4c(c3)CCNC4=O)c2)c(F)c1 [Compound I-28, 4-(6-amino-5-(1-oxo-1,2,3,4-tetrahydroisoquinolin-6-yl)pyridin-3-yl)-N-cyclopropyl-3-fluoro-N-methylbenzenesulfonamide]
- % inhibition (range) ([1]; 10 μM): >90%
- inhibition (10 μM) [1]: 94.5%
- inhibition at 10 µM (MPSK1; read-out: % inhibition (range)): 0%
- inhibition at 10 µM (MPSK1; read-out: inhibition (10 μM)): -9.1%
- % inhibition (range) (MAPKAPK2, MAPKAPK3; 10 μM): 0.0%
- inhibition (10 μM) (MAPKAPK2, MAPKAPK3): −5.0%
- inhibition at 10 µM (PHKg2; read-out: % inhibition (range)): 0%
- inhibition at 10 µM (PHKg2; read-out: inhibition (10 μM)): 17.3%
- inhibition at 10 µM (RSK1 domain2; read-out: % inhibition (range)): 0%
- inhibition at 10 µM (RSK1 domain2; read-out: inhibition (10 μM)): 3.8%
- inhibition at 10 µM (GCN2 domain2; read-out: % inhibition (range)): 0%
- inhibition at 10 µM (GCN2 domain2; read-out: inhibition (10 μM)): -32.1%
- inhibition at 10 µM (EphB2; read-out: % inhibition (range)): 0%
- inhibition at 10 µM (EphB2; read-out: inhibition (10 μM)): -2%
- inhibition at 10 µM (PIP4K2A; read-out: % inhibition (range)): 0%
- inhibition at 10 µM (PIP4K2A; read-out: inhibition (10 μM)): 3.2%
- inhibition at 10 µM (CHK1; read-out: % inhibition (range)): 0%
- inhibition at 10 µM (CHK1; read-out: inhibition (10 μM)): 27.5%
- inhibition at 10 µM (PKCz; read-out: % inhibition (range)): 0%
- inhibition at 10 µM (PKCz; read-out: inhibition (10 μM)): 6.2%
- inhibition at 10 µM (CK1g3; read-out: % inhibition (range)): > 90%
- inhibition at 10 µM (CK1g3; read-out: inhibition (10 μM)): 93.8%
- inhibition at 10 µM (SGK3; read-out: % inhibition (range)): 0%
- inhibition at 10 µM (SGK3; read-out: inhibition (10 μM)): 9.9%
- inhibition at 10 µM (eEF2K; read-out: % inhibition (range)): 0%
- inhibition at 10 µM (eEF2K; read-out: inhibition (10 μM)): -15.1%
- inhibition at 10 µM (RSKL1; read-out: % inhibition (range)): 0%
- inhibition at 10 µM (RSKL1; read-out: inhibition (10 μM)): -26.1%
- % inhibition (range) (MARK2, MARK3; 10 μM): 0.0%
- inhibition (10 μM) (MARK2, MARK3): −7.8%
- inhibition at 10 µM (MASTL; read-out: % inhibition (range)): 0%
- inhibition at 10 µM (MASTL; read-out: inhibition (10 μM)): 10.2%
- inhibition at 10 µM (BRAF; read-out: % inhibition (range)): 0%
- inhibition at 10 µM (BRAF; read-out: inhibition (10 μM)): -4.6%
- inhibition at 10 µM (TBK1; read-out: % inhibition (range)): 0%
- inhibition at 10 µM (TBK1; read-out: inhibition (10 μM)): 3.4%
- inhibition at 10 µM (CDC2; read-out: % inhibition (range)): 0%
- inhibition at 10 µM (CDC2; read-out: inhibition (10 μM)): -26.5%
- inhibition at 10 µM (PKR; read-out: % inhibition (range)): 0%
- inhibition at 10 µM (PKR; read-out: inhibition (10 μM)): -0.8%
- inhibition at 10 µM (FRAP; read-out: % inhibition (range)): 35 to 50%
- inhibition at 10 µM (FRAP; read-out: inhibition (10 μM)): 35.3%
- inhibition at 10 µM (LATS1; read-out: % inhibition (range)): 0%
- inhibition at 10 µM (LATS1; read-out: inhibition (10 μM)): 4.8%
- inhibition at 10 µM (MAP2K1; read-out: % inhibition (range)): 0%
- inhibition at 10 µM (MAP2K1; read-out: inhibition (10 μM)): -5.5%
- inhibition at 10 µM (PKD3; read-out: % inhibition (range)): 35 to 50%
- inhibition at 10 µM (PKD3; read-out: inhibition (10 μM)): 36.6%
- % inhibition (range) (AurA, AurB, AurC; 10 μM): 0.0%
- inhibition (10 μM) (AurA, AurB, AurC): 21.4%
- inhibition at 10 µM (LOK; read-out: % inhibition (range)): 75 to 90%
- inhibition at 10 µM (LOK; read-out: inhibition (10 μM)): 85.5%
- inhibition at 10 µM (SNRK; read-out: % inhibition (range)): 0%
- inhibition at 10 µM (SNRK; read-out: inhibition (10 μM)): 0%
- inhibition at 10 µM (FER; read-out: % inhibition (range)): 0%
- inhibition at 10 µM (FER; read-out: inhibition (10 μM)): -3.9%
- inhibition at 10 µM (BARK1; read-out: % inhibition (range)): 0%
- inhibition at 10 µM (BARK1; read-out: inhibition (10 μM)): 22.3%
- inhibition at 10 µM (IKKa; read-out: % inhibition (range)): 0%
- inhibition at 10 µM (IKKa; read-out: inhibition (10 μM)): 6.4%
- inhibition at 10 µM (LYN; read-out: % inhibition (range)): 0%
- inhibition at 10 µM (LYN; read-out: inhibition (10 μM)): -10.3%
- % inhibition (range) (MAP3K2, MAP3K3; 10 μM): 0.0%
- inhibition (10 μM) (MAP3K2, MAP3K3): 33.8%
- inhibition at 10 µM (NEK3; read-out: % inhibition (range)): 0%
- inhibition at 10 µM (NEK3; read-out: inhibition (10 μM)): -27.2%
